Data taken from US9708334B2, “Substituted 2,4,5,6-tetrahydropyrrolo[3,4-c]pyrazole and 4,5,6,7-tetrahydro-2H-pyrazolo[4,3-c]pyridine compounds as GlyT1 inhibitors” (DART NEUROSCIENCE (CAYMAN) LTD., priority 2014, dated 2017).

These molecules were tested against T1, GlyT1 (Homo sapiens, UniProt P48067) (assay: Glycine Transporter 1 (GlyT1) uptake assay, scintillation proximity assay of [14C]-glycine uptake). Conditions: SPA, four parameter logistic fit, read-out: GlyT1 (pIC50) (converted).
T1 construct: expressed in transfected cells
T1 sequence (P48067 1-706): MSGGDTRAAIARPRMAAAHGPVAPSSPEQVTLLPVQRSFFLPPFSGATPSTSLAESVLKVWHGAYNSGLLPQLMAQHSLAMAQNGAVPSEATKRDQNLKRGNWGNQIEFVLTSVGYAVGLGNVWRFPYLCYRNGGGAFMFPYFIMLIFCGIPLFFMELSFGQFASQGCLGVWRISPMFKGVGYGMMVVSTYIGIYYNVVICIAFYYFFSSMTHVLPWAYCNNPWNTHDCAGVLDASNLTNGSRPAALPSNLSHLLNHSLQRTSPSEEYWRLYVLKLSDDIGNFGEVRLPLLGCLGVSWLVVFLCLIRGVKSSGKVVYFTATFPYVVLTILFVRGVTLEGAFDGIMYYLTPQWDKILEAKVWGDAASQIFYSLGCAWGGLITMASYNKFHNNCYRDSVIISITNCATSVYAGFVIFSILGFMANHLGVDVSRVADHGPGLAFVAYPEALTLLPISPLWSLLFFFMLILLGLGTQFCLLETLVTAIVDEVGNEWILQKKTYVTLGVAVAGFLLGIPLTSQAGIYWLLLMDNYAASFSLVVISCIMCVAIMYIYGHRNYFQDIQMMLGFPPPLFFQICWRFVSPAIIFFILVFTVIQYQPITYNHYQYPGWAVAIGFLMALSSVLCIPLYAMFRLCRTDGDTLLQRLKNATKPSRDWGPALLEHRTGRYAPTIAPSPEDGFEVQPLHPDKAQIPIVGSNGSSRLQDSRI
Format: cell-based
How it was run: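 IC50 values derive from four-parameter logistic curves fitted to dose-response data. Uptake of [14C]-glycine measured in scintillation proximity format.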

SMILES | IC50 [nM]
COc1c(C#N)ccc(C2CCCC2)c1C(=O)N1CCc2nn(-c3ccccc3)cc2C1 [Example 485] | < 100
COc1c(C#N)ccc(C2(F)COC2)c1C(=O)N1CCc2nn(-c3ccccc3)cc2C1 [Example 487] | 1000 to 10000
COc1c(C#N)ccc(C2CCC2)c1C(=O)N1CCc2nn(-c3ccccc3)cc2C1 [Example 488, 4-Cyclobutyl-2-methoxy-3-{2-phenyl-2H 4H 5H 6H 7H-pyrazolo[4,3-c]pyridine-5-carbonyl}benzonitrile] | 100 to 1000
COc1c(C#N)ccc(C2(F)CCCC2)c1C(=O)N1CCc2nn(-c3ccccc3)cc2C1 [Example 490, 4-(1-Fluorocyclopentyl)-2-methoxy-3-{2-phenyl-2H 4H 5H 6H 7H-pyrazolo[4,3-c]pyridine-5-carbonyl}benzonitrile] | < 100
COc1c(C#N)ccc(C2(F)CCCC2)c1C(=O)N1CCc2nn(-c3ccc(F)cc3)cc2C1 [Example 491, 4-(1-Fluorocyclopentyl)-3-[2-(4-fluorophenyl)-2H 4H 5H 6H 7H-pyrazolo[4,3-c]pyridine-5-carbonyl]-2-methoxybenzonitrile] | < 100
COc1c(C#N)ccc(C2CCCC2)c1C(=O)N1Cc2cn(-c3ccc(F)cc3)nc2C1 [Example 494, 4-Cyclopentyl-3-[2-(4-fluorophenyl)-2H 4H 5H 6H-pyrrolo[3,4-c]pyrazole-5-carbonyl]-2-methoxybenzonitrile] | < 100
COc1c(C#N)ccc(C2CCCC2)c1C(=O)N1Cc2cn(-c3cncc(F)c3)nc2C1 [Example 495, 4-Cyclopentyl-3-[2-(5-fluoropyridin-3-yl)-2H 4H 5H 6H-pyrrolo[3,4-c]pyrazole-5-carbonyl]-2-methoxybenzonitrile] | < 100
CS(=O)(=O)c1ccc(N2CCC(F)(F)C2)c(C(=O)N2CCc3nn(-c4ccccc4)cc3C2)c1 [Example 496, 3 3-Difluoro-1-(4-methanesulfonyl-2-{2-phenyl-2H 4H 5H 6H 7H-pyrazolo[4,3-c]pyridine-5-carbonyl}phenyl)pyrrolidine] | 100 to 1000
CS(=O)(=O)c1ccc(N2CCCC2)c(C(=O)N2CCc3nn(-c4ccccc4)cc3C2)c1 [Example 498, 1-(4-Methanesulfonyl-2-{2-phenyl-2H 4H 5H 6H 7H-pyrazolo[4,3-c]pyridine-5-carbonyl}phenyl)pyrrolidine] | 1000 to 10000
CS(=O)(=O)c1ccc(N2CCC2)c(C(=O)N2CCc3nn(-c4ccccc4)cc3C2)c1 [Example 499, 1-(4-Methanesulfonyl-2-{2-phenyl-2H 4H 5H 6H 7H-pyrazolo[4,3-c]pyridine-5-carbonyl}phenyl)azetidine] | > 10000
N#Cc1ccc(N2CCC(F)(F)CC2)c(C(=O)N2CCc3nn(-c4ccccc4)cc3C2)c1Cl [Example 502, 2-Chloro-4-(4 4-difluoropiperidin-1-yl)-3-{2-phenyl-2H 4H 5H 6H 7H-pyrazolo[4,3-c]pyridine-5-carbonyl}benzonitrile] | 100 to 1000
CC(C)(C)COc1ccc(C#N)c(Cl)c1C(=O)N1CCc2nn(-c3ccccc3)cc2C1 [Example 503, 2-Chloro-4-(2 2-dimethylpropoxy)-3-{2-phenyl-2H 4H 5H 6H 7H-pyrazolo[4,3-c]pyridine-5-carbonyl}benzonitrile] | 100 to 1000
N#Cc1ccc(OCC2CC2)c(C(=O)N2CCc3nn(-c4ccccc4)cc3C2)c1Cl [Example 504, 2-Chloro-4-(cyclopropylmethoxy)-3-{2-phenyl-2H 4H 5H 6H 7H-pyrazolo[4,3-c]pyridine-5-carbonyl}benzonitrile] | 1000 to 10000
N#Cc1ccc(N2CCOCC2)c(C(=O)N2CCc3nn(-c4ccccc4)cc3C2)c1Cl [Example 505, 2-Chloro-4-(morpholin-4-yl)-3-{2-phenyl-2H 4H 5H 6H 7H-pyrazolo[4,3-c]pyridine-5-carbonyl}benzonitrile] | 1000 to 10000
CC1(COc2ccc(C#N)c(Cl)c2C(=O)N2CCc3nn(-c4ccccc4)cc3C2)COC1 [Example 506, 2-Chloro-4-[(3-methyloxetan-3-yl)methoxy]-3-{2-phenyl-2H 4H 5H 6H 7H-pyrazolo[4,3-c]pyridine-5-carbonyl}benzonitrile] | 1000 to 10000
CC1(COc2ccc(C#N)c(Cl)c2C(=O)N2CCc3nn(-c4ccccc4)cc3C2)CC1 [Example 507, 2-Chloro-4-[(1-methylcyclopropyl)methoxy]-3-{2-phenyl-2H 4H 5H 6H 7H-pyrazolo[4,3-c]pyridine-5-carbonyl}benzonitrile] | 100 to 1000

Next, values leading:

IC50 [nM] | SMILES
100 to 1000 | CNC(=O)c1ccc(OC(C)C(F)(F)F)c(C(=O)N2CCc3nn(-c4ccc(F)cc4)cc3C2)c1OC (stereo not shown) [Example 480, 3-[2-(4-Fluorophenyl)-2H 4H 5H 6H 7H-pyrazolo[4,3-c]pyridine-5-carbonyl]-2-methoxy-N-methyl-4-[(1 1 1-trifluoropropan-2-yl)oxy]benzamide]
> 10000 | CC(Oc1ccc(C(=O)N2CCC2)cc1C(=O)N1CCc2nn(-c3ccc(F)cc3)cc2C1)C(F)(F)F (stereo not shown) [Example 481, 1-{3-[2-(4-Fluorophenyl)-2H 4H 5H 6H 7H-pyrazolo[4,3-c]pyridine-5-carbonyl]-4-[(1 1 1-trifluoropropan-2-yl)oxy]benzoyl}azetidine]
100 to 1000 | CNC(=O)c1ccc(OC(C)C(F)(F)F)c(C(=O)N2CCc3nn(-c4ccc(F)cc4)cc3C2)c1 (stereo not shown) [Example 482, 3-[2-(4-Fluorophenyl)-2H 4H 5H 6H 7H-pyrazolo[4,3-c]pyridine-5-carbonyl]-N-methyl-4-[(1 1 1-trifluoropropan-2-yl)oxy]benzamide]
1000 to 10000 | COc1c(C(N)=O)ccc(OC(C)C(F)(F)F)c1C(=O)N1CCc2nn(-c3ccc(F)cc3)cc2C1 (stereo not shown) [Example 483, 3-[2-(4-Fluorophenyl)-2H 4H 5H 6H 7H-pyrazolo[4,3-c]pyridine-5-carbonyl]-2-methoxy-4-[(1 1 1-trifluoropropan-2-yl)oxy]benzamide]
< 100 | CC(Oc1ccc(C(N)=O)c(Cl)c1C(=O)N1Cc2cn(-c3ccc(F)cc3)nc2C1)C(F)(F)F (stereo not shown) [Example 484, 2-Chloro-3-[2-(4-fluorophenyl)-2H 4H 5H 6H-pyrrolo[3,4-c]pyrazole-5-carbonyl]-4-[(1 1 1-trifluoropropan-2-yl)oxy]benzamide]
< 100 | COc1c(C#N)ccc(C2CCCC2)c1C(=O)N1CCc2nn(-c3ccc(F)cc3)cc2C1 [Example 486, 4-Cyclopentyl-3-[2-(4-fluorophenyl)-2H 4H 5H 6H 7H-pyrazolo[4,3-c]pyridine-5-carbonyl]-2-methoxybenzonitrile]
100 to 1000 | COc1c(C#N)ccc(C2(F)CCC2)c1C(=O)N1CCc2nn(-c3ccc(F)cc3)cc2C1 [Example 489, 4-(1-Fluorocyclobutyl)-3-[2-(4-fluorophenyl)-2H 4H 5H 6H 7H-pyrazolo[4,3-c]pyridine-5-carbonyl]-2-methoxybenzonitrile]
100 to 1000 | COc1c(C#N)ccc(C2(F)CCOCC2)c1C(=O)N1CCc2nn(-c3ccc(F)cc3)cc2C1 [Example 492]
1000 to 10000 | COc1c(C#N)ccc(C2(OC)CCC2)c1C(=O)N1CCc2nn(-c3ccc(F)cc3)cc2C1 [Example 493, 3-[2-(4-Fluorophenyl)-2H 4H 5H 6H 7H-pyrazolo[4,3-c]pyridine-5-carbonyl]-2-methoxy-4-(1-methoxycyclobutyl)benzonitrile]
100 to 1000 | CC(C)(C)COc1ccc(S(C)(=O)=O)cc1C(=O)N1CCc2nn(-c3ccccc3)cc2C1 [Example 497, 5-[2-(2 2-Dimethylpropoxy)-5-methanesulfonylbenzoyl]-2-phenyl-2H 4H 5H 6H 7H-pyrazolo[4,3-c]pyridine]
1000 to 10000 | CS(=O)(=O)c1ccc(OCC2CC2)c(C(=O)N2CCc3nn(-c4ccccc4)cc3C2)c1 [Example 500, 5-[2-(Cyclopropylmethoxy)-5-methanesulfonylbenzoyl]-2-phenyl-2H 4H 5H 6H 7H-pyrazolo[4,3-c]pyridine]
100 to 1000 | CC(Oc1ccc(C#N)c(Cl)c1C(=O)N1CCc2c(cnn2-c2ccc(F)cc2)C1)C(F)(F)F (stereo not shown) [Example 501, 2-Chloro-3-[1-(4-fluorophenyl)-1H 4H 5H 6H 7H-pyrazolo[4,3-c]pyridine-5-carbonyl]-4-[(1 1 1-trifluoropropan-2-yl)oxy]benzonitrile]
100 to 1000 | CC1(COc2ccc(C#N)c(Cl)c2C(=O)N2CCc3nn(-c4ccc(F)cc4)cc3C2)CC1 [Example 508, 2-Chloro-3-[2-(4-fluorophenyl)-2H 4H 5H 6H 7H-pyrazolo[4,3-c]pyridine-5-carbonyl]-4-[(1-methylcyclopropyl)methoxy]benzonitrile]
100 to 1000 | N#Cc1ccc(OCC2(C(F)(F)F)CC2)c(C(=O)N2CCc3nn(-c4ccc(F)cc4)cc3C2)c1Cl [Example 509, 2-Chloro-3-[2-(4-fluorophenyl)-2H 4H 5H 6H 7H-pyrazolo[4,3-c]pyridine-5-carbonyl]-4-{[1-(trifluoromethyl)cyclopropyl]methoxy}benzonitrile]
< 100 | COc1c(C#N)ccc(N2CCC(F)(F)CC2)c1C(=O)N1Cc2cn(-c3ccc(F)cc3)nc2C1 [Example 510, 4-(4 4-Difluoropiperidin-1-yl)-3-[2-(4-fluorophenyl)-2H 4H 5H 6H-pyrrolo[3,4-c]pyrazole-5-carbonyl]-2-methoxybenzonitrile]
